# “And” between values parts separate entries of the source, which are not always exact repeats. Equal entries are not always repeated. “Also recorded” adds a separate entry of the source.
# Assays:
# EAMG rats [1] = test: Grip strength test after single dose of Mestinon and CIC-1 inhibitor alone or in combination; assay type: in vivo, rat
# Procedure: To induce EAMG, 250 μL of emulsion of Complete Freund's Adjuvant, consisting of heat-inactivated Mycobacterium tuberculosis H37Ra in non-metabolizable oils, together with Phosphate-Buffered Saline (PBS) and 80 μg of the extracellular α-domain peptide fragment of the human nicotinic acetylcholine receptor (antigen) was injected subcutaneously in seven-week-old, anaesthetized Lewis rats. The disease-inducing antigen was supplied by the Hellenic Pasteur institute3. The emulsion was deposited at the tail base, left hindleg, and right foreleg. After injection, animals were allowed to recover and returned to their home cage maintained in ventilated racks under controlled temperature (20 to 22° C.) and humidity (˜55%) control, under a 12-h light/12-h dark cycle with food and water provided ad libitum. The animals had pathogen free status and the housing and changing system was designed to assure that the pathogen free status was preserved during the study. The EAMG rats were observed, weighed, and scored for MG symptoms weekly until symptoms of MG developed, whereafter animals were observed daily.
# In EAMG animals with severe MG symptoms the effects of CIC-1 inhibitor and Mestinon (pyridostigmine) alone or in combination was assessed. […] The study was blinded to both the experimenter and during subsequent analysis. Animals were subjected to grip strength test before compound administration, as described above and then dosed per oral with either 0.375 mg/kg pyridostigmine bromide (Mestinon) (CAS-no 101-26-8), 20 mg/kg NMD670 or a combination of both pyridostigmine and NMD670. Grip strength was tested 45 minutes post dosing. […] The change in grip strengths was calculated for individual animals relative to the results obtained prior to administration of test article and then averaged.
# Grip strength was measured on a BIOSEB BIO-GT3 Grip strength meter (force transducer, S/N 180271). […] Care was taken to ensure that the force recorded reflected the grip strength of the rat and not the force of the pulls conducted by the operator. […]
# CIC-1 = biological target: T1, CIC-1 (Rattus norvegicus, UniProt P35524); test: Resting membrane conductance (Gm) in muscle fibres of isolated nerve-muscle preparations; assay type: cell-based
# T1 construct: from tissue; host or cells: soleus or diaphragm muscle of healthy and EAMG Lewis rats
# T1 sequence (P35524 1-994): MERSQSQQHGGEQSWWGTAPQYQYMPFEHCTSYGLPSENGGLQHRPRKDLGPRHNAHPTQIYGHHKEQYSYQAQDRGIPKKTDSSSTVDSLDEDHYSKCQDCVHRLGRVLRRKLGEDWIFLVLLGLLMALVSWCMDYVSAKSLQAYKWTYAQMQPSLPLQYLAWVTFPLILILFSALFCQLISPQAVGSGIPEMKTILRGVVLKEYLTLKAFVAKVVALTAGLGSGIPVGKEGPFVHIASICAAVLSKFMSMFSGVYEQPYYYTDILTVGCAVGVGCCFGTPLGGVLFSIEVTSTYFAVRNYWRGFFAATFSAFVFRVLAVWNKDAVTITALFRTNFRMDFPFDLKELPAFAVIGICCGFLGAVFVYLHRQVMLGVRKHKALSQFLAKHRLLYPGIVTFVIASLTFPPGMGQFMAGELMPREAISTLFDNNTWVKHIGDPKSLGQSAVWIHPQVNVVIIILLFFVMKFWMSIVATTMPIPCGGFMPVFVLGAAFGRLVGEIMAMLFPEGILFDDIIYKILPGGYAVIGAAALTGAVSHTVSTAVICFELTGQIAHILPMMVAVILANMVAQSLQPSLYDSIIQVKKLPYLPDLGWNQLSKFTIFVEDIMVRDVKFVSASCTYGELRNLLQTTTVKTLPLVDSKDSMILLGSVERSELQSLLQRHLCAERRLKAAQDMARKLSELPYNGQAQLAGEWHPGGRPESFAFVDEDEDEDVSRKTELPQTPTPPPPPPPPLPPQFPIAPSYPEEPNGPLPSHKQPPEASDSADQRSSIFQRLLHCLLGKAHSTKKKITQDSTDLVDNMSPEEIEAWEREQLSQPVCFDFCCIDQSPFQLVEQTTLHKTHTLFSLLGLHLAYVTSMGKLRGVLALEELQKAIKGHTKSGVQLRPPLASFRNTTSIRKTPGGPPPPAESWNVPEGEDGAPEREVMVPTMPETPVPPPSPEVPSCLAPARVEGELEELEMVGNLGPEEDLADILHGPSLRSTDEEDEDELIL
# Text: (§1) To allow for measurements of electrophysiological properties at the cellular level and for measurements of force, it was necessary to isolate nerve-muscle preparations from the rats. To this end, animals were sacrificed, and muscles were dissected out with 1 to 3 cm of intact nerve. The nerve-muscle preparations were then transferred to the organ baths used for the particular experiments (see below) and perfused with Normal Krebs-Ringer (NKR) solution, consisting of (in mM); 122 NaCl, 25 NaHCO3, 2.8 KCl, 1.2 KH2PO4, 1.2 MgSO4 1.27 CaCl2 and 5 D-glucose. This NKR solution was continuously gassed with a mixture of 95% oxygen and 5% CO2, to maintain a pH of approx. 7.4. In some experiments methyl-sulphate was used to replace Cl^− in the solution. All chemicals used were of analytical grade.
# EAMG rats [2] = test: Force and EMG in sedated EAMG animals (triceps surae, sciatic nerve stimulation); assay type: in vivo, rat
# EAMG muscle fibres = test: Intracellular action potential measurement during nerve stimulation; assay type: cell-based, rat; details: 20 μM NMD670; 30 Hz nerve stimulation; EAMG muscle fibres (n=110)
# Text: as §1
compound,measurement,setting,value
"C[C@H](Oc1ccc(Br)cc1-c1ccon1)C(=O)O [NMD670, (2S)-2-[4-bromo-2-(1,2-oxazol-3-yl)phenoxy]propanoic acid]",Grip strength after administration (significance vs vehicle),"EAMG rats [1]; 45 minutes after dosing, 20 mg/kg NMD670, or with 0.375 mg/kg Mestinon",significantly increased
same,Increase in Pulled Force (%),"EAMG rats [1]; per oral, 45 minutes post dosing, 0.375 mg/kg Mestinon, 20 mg/kg NMD670 or both",15±5% and 14.5 ± 5.1%
same,Membrane conductance (Gm),"CIC-1; 20 μM NMD670, rat soleus muscle from healthy (n=20) and EAMG (n=12) animals, before vs after addition",statistically significantly reduced Gm
same,Membrane conductance (Gm) in bathing solution free of Cl−,"CIC-1; increasing concentration of NMD670, Cl−-free solution",did not reduced Gm
same,Nerve-stimulated force and EMG amplitude in triceps surae,"EAMG rats [2]; EAMG rat score 2, 40 mg per kg, 20 minutes after administration, 80 Hz for 1 second",rapid restoration of force and EMG amplitude
same,Restoration of muscle force / EMG,"EAMG rats [2]; EAMG rats, single per oral doses from 2 to 120 mg/kg",rapid and dose-dependent restoration of muscle force; also recorded: rapid and dose-dependent restoration of both EMG and force
same,Success of repeated action potential excitations,EAMG muscle fibres,improved markedly; also recorded: AP excitation failures were less common

# From US20260102377A1, “COMPOSITIONS AND METHODS FOR TREATING MYASTHENIA GRAVIS” (priority 2022, published 2026)
